This passage reports IC50 results from ChEMBL document CHEMBL1130457, “Design and synthesis of a novel class of thrombin inhibitors incorporating heterocyclic dipeptide surrogates” (Bioorg Med Chem Lett, 1997).

Assay [1] concerns the target Serine protease 1 (Homo sapiens, UniProt P07477).
Assay [2] deals with Plasminogen (Homo sapiens, UniProt P00747).
In assay [3] the target is Tissue-type plasminogen activator (Homo sapiens, UniProt P00750). Put plainly: Inhibitory concentration required to inhibit human Tissue type plasminogen activator was determined.
The target in assay [4] is Prothrombin (Homo sapiens, UniProt P00734).
Description: Inhibitory concentration required to inhibit human thrombin enzyme was determined
The target in assay [5] is Coagulation factor X (Homo sapiens, UniProt P00742).
Chain of Coagulation factor X (P00742 41-179 limits assumed): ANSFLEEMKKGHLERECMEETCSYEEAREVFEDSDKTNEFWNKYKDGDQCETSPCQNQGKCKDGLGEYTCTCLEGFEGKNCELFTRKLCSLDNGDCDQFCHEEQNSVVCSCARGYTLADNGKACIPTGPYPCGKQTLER
Chain of Coagulation factor X (P00742 235-488 limits assumed): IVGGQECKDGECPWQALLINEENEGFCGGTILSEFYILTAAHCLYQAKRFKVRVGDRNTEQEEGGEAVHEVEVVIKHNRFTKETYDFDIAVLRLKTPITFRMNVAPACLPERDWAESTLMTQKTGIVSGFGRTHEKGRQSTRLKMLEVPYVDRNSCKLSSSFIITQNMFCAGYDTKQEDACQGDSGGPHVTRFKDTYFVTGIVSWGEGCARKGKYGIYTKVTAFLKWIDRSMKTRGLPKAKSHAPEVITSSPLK

Chain of Plasminogen (P00747 97-580 limits assumed): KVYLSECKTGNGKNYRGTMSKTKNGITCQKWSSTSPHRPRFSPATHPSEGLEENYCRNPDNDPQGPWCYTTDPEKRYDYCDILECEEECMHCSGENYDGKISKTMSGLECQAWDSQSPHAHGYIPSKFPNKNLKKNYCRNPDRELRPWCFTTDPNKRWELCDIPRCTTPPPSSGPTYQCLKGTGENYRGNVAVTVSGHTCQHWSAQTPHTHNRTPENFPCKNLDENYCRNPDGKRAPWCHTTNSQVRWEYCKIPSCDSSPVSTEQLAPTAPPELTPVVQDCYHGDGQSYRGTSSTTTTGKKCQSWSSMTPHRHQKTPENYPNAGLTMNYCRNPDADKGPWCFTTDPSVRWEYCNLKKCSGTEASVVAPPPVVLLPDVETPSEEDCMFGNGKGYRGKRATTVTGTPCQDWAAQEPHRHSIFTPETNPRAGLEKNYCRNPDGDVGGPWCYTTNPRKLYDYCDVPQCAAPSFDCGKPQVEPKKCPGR
Chain of Plasminogen (P00747 581-810 limits assumed): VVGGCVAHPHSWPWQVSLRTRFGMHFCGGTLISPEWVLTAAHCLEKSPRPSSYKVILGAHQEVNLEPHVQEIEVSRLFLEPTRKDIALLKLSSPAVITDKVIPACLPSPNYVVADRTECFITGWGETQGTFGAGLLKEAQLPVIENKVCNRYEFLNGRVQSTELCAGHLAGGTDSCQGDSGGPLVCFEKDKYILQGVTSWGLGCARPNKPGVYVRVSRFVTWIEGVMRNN
Chain of Tissue-type plasminogen activator (P00750 whole entry): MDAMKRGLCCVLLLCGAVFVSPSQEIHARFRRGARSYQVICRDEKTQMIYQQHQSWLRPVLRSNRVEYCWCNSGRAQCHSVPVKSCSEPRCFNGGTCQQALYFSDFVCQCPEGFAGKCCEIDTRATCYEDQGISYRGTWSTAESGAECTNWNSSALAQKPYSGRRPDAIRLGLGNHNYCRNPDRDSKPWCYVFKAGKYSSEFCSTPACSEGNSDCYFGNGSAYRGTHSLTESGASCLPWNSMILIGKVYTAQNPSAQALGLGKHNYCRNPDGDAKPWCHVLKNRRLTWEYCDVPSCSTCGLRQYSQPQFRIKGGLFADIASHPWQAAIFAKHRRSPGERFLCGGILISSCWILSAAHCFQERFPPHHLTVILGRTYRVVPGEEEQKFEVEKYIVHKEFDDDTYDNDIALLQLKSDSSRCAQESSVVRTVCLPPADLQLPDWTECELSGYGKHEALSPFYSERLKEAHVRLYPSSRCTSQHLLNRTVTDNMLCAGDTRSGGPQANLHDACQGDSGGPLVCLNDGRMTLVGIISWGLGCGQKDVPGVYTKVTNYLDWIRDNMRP
Chain of Serine protease 1 (P07477 whole entry): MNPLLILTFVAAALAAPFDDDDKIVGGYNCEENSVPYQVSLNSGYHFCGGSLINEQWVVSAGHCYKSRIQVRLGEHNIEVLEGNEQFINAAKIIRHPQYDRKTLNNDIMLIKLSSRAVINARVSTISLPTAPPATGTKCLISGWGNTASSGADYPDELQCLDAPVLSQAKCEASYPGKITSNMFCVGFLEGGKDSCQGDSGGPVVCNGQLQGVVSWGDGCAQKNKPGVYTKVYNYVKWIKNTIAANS

Consider `Cc1ccc(NS(=O)(=O)Cc2ccccc2)c(=O)n1CC(=O)N[C@H]1CCCN(C(=N)N)C1O` (stereo not given in full), for which the 50% inhibitory concentration (IC50) in assay [1] was 10.9 nM; in assay [2], > 2500 nM; in assay [3], > 2500 nM; in assay [4] it was 0.467 nM; in assay [5], 447 nM.

As to `N=C(N)N1CCC[C@H](NC(=O)CN2CCC[C@H](NS(=O)(=O)Cc3ccccc3)C2=O)C1O` (stereo not given in full), the IC50 in assay [1] is 791 nM; in assay [2] it was > 2500 nM; in assay [3], > 2500 nM; in assay [4], 6.2 nM; in assay [5], 2500 nM.

With `Cc1ncc(NS(=O)(=O)Cc2ccccc2)c(=O)n1CC(=O)N[C@H]1CCCN(C(=N)N)C1O` (stereo not given in full), the IC50 in assay [1] is 160 nM; in assay [2], > 2500 nM; in assay [3], > 2500 nM; in assay [4] it was 2.32 nM; in assay [5], 905 nM.

As to `Cn1cc(NS(=O)(=O)Cc2ccccc2)c(=O)n(CC(=O)N[C@H]2CCCN(C(=N)N)C2O)c1=O` (stereo not given in full), the IC50 is 396 nM in assay [1]; > 2500 nM in assay [2]; > 2500 nM in assay [3]; 141 nM in assay [4]; 2500 nM in assay [5].

For `N=C(N)N1CCC[C@H](NC(=O)Cn2cccc(NS(=O)(=O)Cc3ccccc3)c2=O)C1O` (stereo not given in full), the half-inhibitory concentration (IC50) in assay [1] was 26.2 nM; in assay [2], > 2500 nM; in assay [3] it was > 2500 nM; in assay [4] it was 0.505 nM; in assay [5], 20.9 nM.
